These results are taken from US11420958B2, “Aryl and heteroaryl substituted indole compounds” (BRISTOL-MYERS SQUIBB COMPANY, priority 2017, dated 2022).

What is called IC50 is the midpoint of a concentration-inhibition curve.

Bounds are passed on as bounds.

Assay type in all cases: cell-based
For one test, the target named is human TLR8 (Homo sapiens (Human), UniProt Q9NR97). Description: TLR8 inhibition reporter assay (HEK-Blue, SEAP). The following applies: HEK-Blue cells overexpressing human TLR8, R848 15.9 μM stimulation. The gist of the method:
(§1)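 Percent inhibition of agonist-induced SEAP secretion was scored against DMSO-only and reference-inhibitor controls. Stimulation lasted 22 h at 37 °C following 30 min compound pre-exposure (0.05 nM–50 μM); ligands were gardiquimod 7.5 μM, R848 15.9 μM and ODN2006 5 nM for TLR7, 8 and 9.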
Background: A reporter such as luciferase makes a cellular process visible.

Another test addresses human TLR7 (Homo sapiens (Human), UniProt Q9NYK1). Description: TLR7 inhibition reporter assay (HEK-Blue, SEAP). Particulars: HEK-Blue cells overexpressing human TLR7, gardiquimod 7.5 μM stimulation. A digest of the protocol:
as §1

The target of a further test is human TLR9 (Homo sapiens (Human), UniProt Q9NR96). The test can be described thus: TLR9 inhibition reporter assay (HEK-Blue, SEAP). The following applies: HEK-Blue cells overexpressing human TLR9, ODN2006 5 nM stimulation. A digest of the protocol: as §1
human TLR9, sequence (Q9NR96 26-1032): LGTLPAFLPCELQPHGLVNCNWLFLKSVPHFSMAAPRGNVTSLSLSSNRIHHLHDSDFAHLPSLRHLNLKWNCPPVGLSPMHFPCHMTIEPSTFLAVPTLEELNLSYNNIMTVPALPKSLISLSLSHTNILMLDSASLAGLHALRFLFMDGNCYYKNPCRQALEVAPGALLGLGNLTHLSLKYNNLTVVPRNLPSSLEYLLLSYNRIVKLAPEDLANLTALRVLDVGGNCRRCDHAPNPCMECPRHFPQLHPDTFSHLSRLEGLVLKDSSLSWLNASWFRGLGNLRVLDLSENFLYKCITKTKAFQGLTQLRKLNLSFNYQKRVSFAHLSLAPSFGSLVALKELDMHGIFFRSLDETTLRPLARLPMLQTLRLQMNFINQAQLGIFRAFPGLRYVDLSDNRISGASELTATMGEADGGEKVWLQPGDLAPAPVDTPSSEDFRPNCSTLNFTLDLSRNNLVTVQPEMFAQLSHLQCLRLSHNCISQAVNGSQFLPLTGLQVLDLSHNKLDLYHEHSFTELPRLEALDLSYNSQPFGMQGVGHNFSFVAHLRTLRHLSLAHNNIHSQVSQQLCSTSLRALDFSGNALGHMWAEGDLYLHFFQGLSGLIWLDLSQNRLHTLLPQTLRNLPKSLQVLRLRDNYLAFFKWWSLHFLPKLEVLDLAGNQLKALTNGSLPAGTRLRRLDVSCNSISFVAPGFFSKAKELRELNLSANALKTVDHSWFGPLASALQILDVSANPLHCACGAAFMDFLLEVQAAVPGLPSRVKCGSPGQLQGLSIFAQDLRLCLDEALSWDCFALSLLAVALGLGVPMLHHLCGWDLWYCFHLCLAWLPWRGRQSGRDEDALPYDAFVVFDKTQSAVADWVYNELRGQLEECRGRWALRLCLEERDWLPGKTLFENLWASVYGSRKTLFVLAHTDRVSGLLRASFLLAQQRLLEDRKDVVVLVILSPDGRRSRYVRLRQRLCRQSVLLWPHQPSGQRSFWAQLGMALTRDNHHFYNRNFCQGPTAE

human TLR8, sequence (Q9NR97 27-1041): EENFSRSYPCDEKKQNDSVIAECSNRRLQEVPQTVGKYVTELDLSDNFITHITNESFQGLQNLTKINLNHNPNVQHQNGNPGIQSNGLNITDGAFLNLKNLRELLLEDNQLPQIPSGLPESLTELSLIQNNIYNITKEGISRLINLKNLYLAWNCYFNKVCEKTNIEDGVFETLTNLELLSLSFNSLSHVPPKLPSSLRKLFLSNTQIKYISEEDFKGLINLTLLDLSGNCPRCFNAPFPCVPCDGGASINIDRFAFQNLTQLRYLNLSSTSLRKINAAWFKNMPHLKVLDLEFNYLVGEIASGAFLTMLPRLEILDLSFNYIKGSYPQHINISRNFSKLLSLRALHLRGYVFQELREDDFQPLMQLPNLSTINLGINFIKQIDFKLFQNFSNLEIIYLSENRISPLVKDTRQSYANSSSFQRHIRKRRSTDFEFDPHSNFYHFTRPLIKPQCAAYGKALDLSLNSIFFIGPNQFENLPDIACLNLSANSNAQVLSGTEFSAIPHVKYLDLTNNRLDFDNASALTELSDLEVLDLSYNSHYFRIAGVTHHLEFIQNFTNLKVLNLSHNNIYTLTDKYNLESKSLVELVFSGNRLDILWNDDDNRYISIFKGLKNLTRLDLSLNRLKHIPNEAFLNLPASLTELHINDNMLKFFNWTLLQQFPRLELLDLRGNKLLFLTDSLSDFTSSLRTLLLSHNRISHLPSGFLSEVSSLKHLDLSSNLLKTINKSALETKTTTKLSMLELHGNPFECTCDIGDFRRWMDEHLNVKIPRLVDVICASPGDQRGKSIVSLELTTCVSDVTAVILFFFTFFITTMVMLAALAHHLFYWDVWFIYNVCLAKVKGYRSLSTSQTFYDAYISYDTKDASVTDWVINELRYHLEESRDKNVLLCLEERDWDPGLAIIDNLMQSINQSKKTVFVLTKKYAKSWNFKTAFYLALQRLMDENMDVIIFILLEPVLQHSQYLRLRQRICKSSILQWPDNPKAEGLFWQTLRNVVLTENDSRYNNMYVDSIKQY
human TLR7, sequence (Q9NYK1 27-1049): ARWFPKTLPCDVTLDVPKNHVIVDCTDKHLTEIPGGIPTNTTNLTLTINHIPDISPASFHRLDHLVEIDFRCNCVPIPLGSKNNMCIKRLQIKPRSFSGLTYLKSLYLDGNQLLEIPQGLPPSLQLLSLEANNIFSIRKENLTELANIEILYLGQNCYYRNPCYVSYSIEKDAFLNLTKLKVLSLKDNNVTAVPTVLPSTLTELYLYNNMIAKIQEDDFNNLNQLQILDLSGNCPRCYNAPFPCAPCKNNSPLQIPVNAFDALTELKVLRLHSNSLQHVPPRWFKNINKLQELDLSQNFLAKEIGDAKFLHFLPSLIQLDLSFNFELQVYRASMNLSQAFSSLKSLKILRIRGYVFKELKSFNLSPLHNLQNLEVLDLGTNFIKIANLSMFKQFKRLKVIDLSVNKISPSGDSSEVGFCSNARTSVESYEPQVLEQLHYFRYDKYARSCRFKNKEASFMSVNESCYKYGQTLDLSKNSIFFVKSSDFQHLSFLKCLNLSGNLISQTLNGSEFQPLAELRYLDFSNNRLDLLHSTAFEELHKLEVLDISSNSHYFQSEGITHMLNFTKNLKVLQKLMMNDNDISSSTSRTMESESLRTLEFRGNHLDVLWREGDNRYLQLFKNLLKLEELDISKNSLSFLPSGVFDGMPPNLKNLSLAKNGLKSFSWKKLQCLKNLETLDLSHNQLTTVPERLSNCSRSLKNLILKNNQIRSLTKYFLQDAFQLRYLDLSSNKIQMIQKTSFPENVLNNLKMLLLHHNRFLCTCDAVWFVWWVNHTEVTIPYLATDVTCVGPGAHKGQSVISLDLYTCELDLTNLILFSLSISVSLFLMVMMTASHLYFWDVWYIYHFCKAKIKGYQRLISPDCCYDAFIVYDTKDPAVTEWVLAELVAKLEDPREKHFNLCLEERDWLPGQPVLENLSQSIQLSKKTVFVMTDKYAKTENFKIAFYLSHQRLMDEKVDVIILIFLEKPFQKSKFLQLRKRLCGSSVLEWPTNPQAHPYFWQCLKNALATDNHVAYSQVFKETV

As for `CC(=O)N1CCCN(Cc2nnc(-c3ccc4[nH]c(-c5ccnc6[nH]ncc56)c(C(C)C)c4c3)o2)CC1` [Example 155, 1-(4-((5-(3-isopropyl-2-(1H-pyrazolo[3,4-b]pyridin-4-yl)-1H-indol-5-yl)-1,3,4-oxadiazol-2-yl)methyl)-1,4-diazepan-1-yl)ethan-1-one], the values for the IC50 against human TLR8, against human TLR7 and at human TLR9 were 0.127 µM, 1.42 µM and > 50 µM, respectively.
For `COc1ccc(-c2[nH]c3ccc(-c4cccc(-c5cccc(CN(C)C)c5)c4)cc3c2C(C)C)cc1OC` [Example 397, 1-(3′-(2-(3,4-dimethoxyphenyl)-3-isopropyl-1H-indol-5-yl)-[1,1′-biphenyl]-3-yl)-N,N-dimethylmethanamine], in that order: 0.101 µM, 3.3 µM and 4.12 µM.
With `COc1ccc(-c2[nH]c3ccc(-c4nnc(C5CCNC5)o4)cc3c2C(C)C)cc1OC` (stereo not drawn) [Example 48, 2-(2-(3,4-dimethoxyphenyl)-3-isopropyl-1H-indol-5-yl)-5-(pyrrolidin-3-yl)-1,3,4-oxadiazole], the results for the IC50 at human TLR8, against human TLR7 and against human TLR9 were 0.011 µM, 0.034 µM and 2.33 µM, respectively.
Consider `CC(C)c1c(-c2ccnc3[nH]ncc23)[nH]c2ccc(-c3nnc(C4CCN(C(=O)CN(C)C)CC4)o3)cc12` [Example 86, 2-(dimethylamino)-1-(4-(5-(3-isopropyl-2-(1H-pyrazolo[3,4-b]pyridin-4-yl)-1H-indol-5-yl)-1,3,4-oxadiazol-2-yl)piperidin-1-yl)ethan-1-one], for which the IC50 against human TLR8 turned out to be 0.0061 µM; at human TLR7 it was 0.085 µM; against human TLR9, 0.324 µM.
Consider `CCc1c(-c2ccc(OC)c(OC)c2)[nH]c2ccc(-c3noc(C4CCN(Cc5ccccc5)CC4)n3)cc12` [Example 444, 5-(1-benzylpiperidin-4-yl)-3-(2-(3,4-dimethoxyphenyl)-3-ethyl-1H-indol-5-yl)-1,2,4-oxadiazole], for which the IC50 against human TLR8 was 0.443 µM; on human TLR7, 3.13 µM; on human TLR9 it was 11.2 µM.
Consider `Cc1cc(-c2[nH]c3ccc(-c4ccc(NC(=O)CN(C)C)nc4)cc3c2C(C)C)cc(C)n1` [Example 238, 2-(dimethylamino)-N-(5-(2-(2,6-dimethylpyridin-4-yl)-3-isopropyl-1H-indol-5-yl)pyridin-2-yl)acetamide], for which the IC50 on human TLR8 came to 0.0027 µM; against human TLR7, 0.0097 µM; at human TLR9 it was 0.451 µM.
`CCc1c(-c2ccc(OC)c(OC)c2)[nH]c2ccc(-c3noc(C4CCN(Cc5ccccc5)C4)n3)cc12` (stereo not drawn) [Example 443, 5-(1-benzylpyrrolidin-3-yl)-3-(2-(3,4-dimethoxyphenyl)-3-ethyl-1H-indol-5-yl)-1,2,4-oxadiazole]: the IC50 at human TLR8 turned out to be 0.74 µM; on human TLR7, 3.28 µM; against human TLR9, 10.3 µM.
For the compound `COc1ccc(-c2[nH]c3ccc(-c4nnc(C[C@@H]5CCCCN5)o4)cc3c2C(C)C)cc1OC` [Example 50, (S)-2-(2-(3,4-dimethoxyphenyl)-3-isopropyl-1H-indol-5-yl)-5-(piperidin-2-ylmethyl)-1,3,4-oxadiazole], the IC50 at human TLR8 came out at 0.0059 µM; against human TLR7 it was 0.044 µM; against human TLR9, 1.08 µM.
Take `CC(C)c1c(-c2ccnc3[nH]ncc23)[nH]c2ccc(-c3nnc(C(=O)NC4CCN(C(C)C)CC4)o3)cc12` [Example 84, 5-(3-isopropyl-2-(1H-pyrazolo[3,4-b]pyridin-4-yl)-1H-indol-5-yl)-N-(1-isopropylpiperidin-4-yl)-1,3,4-oxadiazole-2-carboxamide]: the IC50 against human TLR8 came to 0.006 µM; against human TLR7 it was 0.087 µM; at human TLR9, 0.235 µM.
As for `Cc1cc(-c2[nH]c3ccc(-c4nnc([C@@H]5CCC[C@@H]5N)o4)cc3c2C(C)C)ccn1` [Example 267, (1S,2R)-2-(5-(3-isopropyl-2-(2-methylpyridin-4-yl)-1H-indol-5-yl)-1,3,4-oxadiazol-2-yl)cyclopentan-1-amine], the values for the IC50 against human TLR8, against human TLR7 and at human TLR9 were 0.0024 µM, 0.03 µM and 0.752 µM, respectively.
In the case of `Cc1cc(-c2[nH]c3ccc(-c4nnc(C(=O)NC5CCNC5)s4)cc3c2C(C)C)ccn1` (stereo not drawn) [Example 137, 5-(3-isopropyl-2-(2-methylpyridin-4-yl)-1H-indol-5-yl)-N-(pyrrolidin-3-yl)-1,3,4-thiadiazole-2-carboxamide], the IC50 at human TLR8 turned out to be 0.0027 µM; on human TLR7, 0.029 µM; at human TLR9, 0.705 µM.
Consider `CC(C)c1c(-c2ccnc3[nH]ncc23)[nH]c2ccc(-c3nnc(C4CN5CCC4CC5)o3)cc12` (stereo not drawn) [Example 220, 2-(3-isopropyl-2-(1H-pyrazolo[3,4-b]pyridin-4-yl)-1H-indol-5-yl)-5-(quinuclidin-3-yl)-1,3,4-oxadiazole], for which the IC50 against human TLR8 worked out at 0.012 µM; against human TLR7, 0.076 µM; against human TLR9, 0.238 µM.
Regarding `COc1ccc(-c2[nH]c3ccc(-c4ccc(N5CCC(c6ccncc6)CC5)cc4)cc3c2C(C)C)cc1OC` [Example 405, 2-(3,4-dimethoxyphenyl)-3-isopropyl-5-(4-(4-(pyridin-4-yl)piperidin-1-yl)phenyl)-1H-indole], the IC50 was 0.464 µM against human TLR8, 1.56 µM on human TLR7 and > 50 µM against human TLR9.
As for `CNCc1nnc(-c2ccc3[nH]c(-c4ccnc5n[nH]cc45)c(C(C)C)c3c2)o1` [Example 132, 1-(5-(3-isopropyl-2-(2H-pyrazolo[3,4-b]pyridin-4-yl)-1H-indol-5-yl)-1,3,4-oxadiazol-2-yl)-N-methylmethanamine], the figures for the half-maximal inhibitory concentration (IC50) at human TLR8, at human TLR7 and at human TLR9 were 0.044 µM, 2.68 µM and 47.4 µM, respectively.
For `CC(C)c1c(-c2ccnc3[nH]ncc23)[nH]c2ccc(-c3cc(N4CCC(N)CC4)ncn3)cc12` [Example 208, 1-(6-(3-isopropyl-2-(1H-pyrazolo[3,4-b]pyridin-4-yl)-1H-indol-5-yl)pyrimidin-4-yl)piperidin-4-amine], in that order: 0.0093 µM, 0.139 µM and 1.22 µM.
For `Cc1cc(-c2[nH]c3ccc(-c4ccc(C(=O)N5CCC(NC(C)C)CC5)cc4)cc3c2C(C)C)ccn1` [Example 321, (4-(3-isopropyl-2-(2-methylpyridin-4-yl)-1H-indol-5-yl)phenyl)(4-(isopropylamino)piperidin-1-yl)methanone], the IC50 against human TLR8 stood at 0.017 µM; at human TLR7, 0.037 µM; on human TLR9, 0.739 µM.
As for `Cc1cn2cc(-c3[nH]c4ccc(-c5ccc(N6CCNCC6)nc5)cc4c3C(C)C)ccc2n1` [Example 334, 6-(3-isopropyl-5-(6-(piperazin-1-yl)pyridin-3-yl)-1H-indol-2-yl)-2-methylimidazo[1,2-a]pyridine], the IC50 at human TLR8 worked out at 0.214 µM; on human TLR7, 0.045 µM; against human TLR9, 0.672 µM.
Consider `Cc1cc(-c2[nH]c3ccc(-c4ccc(N(C)C)nc4)cc3c2C(C)C)ccn1` [Example 246, 5-(3-isopropyl-2-(2-methylpyridin-4-yl)-1H-indol-5-yl)-N,N-dimethylpyridin-2-amine], for which the figures for the IC50 against human TLR8, against human TLR7 and on human TLR9 were 0.021 µM, 0.056 µM and > 50 µM, respectively.
`COc1ccc(-c2[nH]c3ccc(-c4nnc(C(=O)NCCN(C)C)o4)cc3c2C(C)C)cc1OC` [Example 90, 5-(2-(3,4-dimethoxyphenyl)-3-isopropyl-1H-indol-5-yl)-N-(2-(dimethylamino)ethyl)-1,3,4-oxadiazole-2-carboxamide]: the IC50 came out at 0.004 µM against human TLR8, 0.03 µM on human TLR7 and 0.802 µM against human TLR9.
For `Cc1cc(-c2[nH]c3ccc(-c4ccc(N)nn4)cc3c2C(C)C)cc(C)n1` [Example 349, 6-(2-(2,6-dimethylpyridin-4-yl)-3-isopropyl-1H-indol-5-yl)pyridazin-3-amine], in that order: 0.0056 µM, 0.0086 µM and 2.12 µM.
On to `Cc1cc(-c2[nH]c3ccc(-c4nnc(C5CCCN(C(C)C)C5)[nH]4)cc3c2C(C)C)cc(C)n1` (stereo not drawn) [Example 358, 2-(2,6-dimethylpyridin-4-yl)-3-isopropyl-5-(5-(1-isopropylpiperidin-3-yl)-4H-1,2,4-triazol-3-yl)-1H-indole], for which the IC50 at human TLR8 stood at 0.0016 µM; at human TLR7, 0.0049 µM; on human TLR9, 0.157 µM.
For `CNCCCNC(=O)c1coc(-c2ccc3[nH]c(-c4cc(C)nc(C)c4)c(C(C)C)c3c2)n1` [Example 279, 2-(2-(2,6-dimethylpyridin-4-yl)-3-isopropyl-1H-indol-5-yl)-N-(3-(methylamino)propyl)oxazole-4-carboxamide], in that order: 0.0088 µM, 0.014 µM and 0.128 µM.
On to `COc1ccc(-c2[nH]c3ccc(-c4nnc(C5CNC5)o4)cc3c2C(C)C)cc1OC` [Example 53, 2-(azetidin-3-yl)-5-(2-(3,4-dimethoxyphenyl)-3-isopropyl-1H-indol-5-yl)-1,3,4-oxadiazole], for which the values for the IC50 on human TLR8, at human TLR7 and against human TLR9 were 0.078 µM, 0.381 µM and 3.01 µM, respectively.
For `Cc1cc(-c2[nH]c3ccc(-c4cc5c(s4)CN(CC(=O)N(C)C)CC5)cc3c2C(C)C)ccn1` [Example 311, 2-(2-(3-isopropyl-2-(2-methylpyridin-4-yl)-1H-indol-5-yl)-4,7-dihydrothieno[2,3-c]pyridin-6(5H)-yl)-N,N-dimethylacetamide], the IC50 against human TLR8 was 0.024 µM; against human TLR7, 0.146 µM; at human TLR9, 3.35 µM.
As for `Cc1cc(-c2[nH]c3ccc(-c4nnc(C5CCCNC5)[nH]4)cc3c2C(C)C)ccn1` (stereo not drawn) [Example 178, 3-isopropyl-2-(2-methylpyridin-4-yl)-5-(5-(piperidin-3-yl)-4H-1,2,4-triazol-3-yl)-1H-indole], the IC50 on human TLR8 was 0.012 µM; at human TLR7, 0.22 µM; on human TLR9 it was 3.99 µM.
